Reference: patent US20240217988A1, “ESTROGEN RECEPTOR ANTAGONIST” (Shenzhen Forward Pharmaceuticals Co., Limited, priority 2021, published 2024)

Assays:
[1] = system: Human breast cancer cells MCF-7; assay: MCF-7 cell proliferation experiment; format: cell-based; conditions: Homo sapiens, MCF7; MCF-7 cells, 72 hours, Cell Titer-Glo
Description: Test Example 2: MCF-7 Cell Proliferation Experiment
Human breast cancer cells MCF-7 (HTB-22, purchased from ATCC) were inoculated into a 96-well plate. The culture medium was an MEM (Hyclone, SH30024.01B) culture medium containing 10% of FBS (Gibco, 10099-141), 1% of pyruvic acid (Sigma, S8636), and 1% of nonessential amino acid (Sigma, M7145), and the inoculation density was 4,000 cells/well. The cells were cultured at 37° C., 5% CO2. The compound was prepared into a 20 mM stock solution, which was subjected to gradient dilution to a final concentration of […] with 100% DMSO (Sigma, D2650) and then diluted 20 folds with a culture medium containing 2% of FBS. After 24 hours of culture, the culture medium was removed, 90 μL of a culture medium containing 2% of FBS and 10 μL of drug were added to each well, while 10 μL of DMSO was added to the control group, and they were gently shaken and mixed. The blank group only contained 100 μL of 2% FBS culture medium. They were placed in an incubator and cultured at 37° C., 5% CO2. After 72 hours, 50 μL of mixed Cell Titer-Glo (Promega, G7571) was added. They were shaken and mixed uniformly, and placed at room temperature for 10 min. The chemiluminescence signal value was determined. The negative control was 0.5% DMSO well.

ERα = ERα (Homo sapiens (Human), UniProt P03372); assay: Degradation effect of compound on ERα (ERα DuoSet IC ELISA in MCF-7 cells); format: cell-based; conditions: 24 h with compound, read-out: IC50 value of ERα degradation by compound
Chain of ERα (P03372 whole entry): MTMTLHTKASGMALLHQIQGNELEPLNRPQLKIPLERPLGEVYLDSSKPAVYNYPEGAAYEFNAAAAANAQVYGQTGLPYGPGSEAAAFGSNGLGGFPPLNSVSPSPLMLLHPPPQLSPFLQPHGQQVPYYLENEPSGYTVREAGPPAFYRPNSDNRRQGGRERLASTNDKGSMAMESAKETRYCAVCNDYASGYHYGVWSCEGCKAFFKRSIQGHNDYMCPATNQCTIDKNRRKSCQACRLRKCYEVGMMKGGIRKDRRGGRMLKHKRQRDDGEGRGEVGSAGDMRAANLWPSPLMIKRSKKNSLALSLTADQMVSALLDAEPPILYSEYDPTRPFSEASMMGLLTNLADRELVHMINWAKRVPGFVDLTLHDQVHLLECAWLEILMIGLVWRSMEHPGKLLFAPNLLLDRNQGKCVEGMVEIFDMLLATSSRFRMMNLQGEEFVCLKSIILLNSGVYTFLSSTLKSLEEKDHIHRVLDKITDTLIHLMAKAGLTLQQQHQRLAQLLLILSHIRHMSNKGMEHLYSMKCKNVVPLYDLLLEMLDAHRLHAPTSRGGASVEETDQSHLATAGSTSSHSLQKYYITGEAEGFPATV
Description: In this test example, ERα DuoSet IC ELISA Kit (R&D, DYC5715) was used to detect the degradation effect of the compound on ERα. On the first day of the experiment, human breast cancer cells MCF-7 (the source was as above) were inoculated into a 24-well plate. The culture medium was an MEM culture medium containing 10% of activated-carbon-treated FBS (Tocyto, UT61204), 1% of pyruvic acid and 1% of nonessential amino acid. The inoculation density was 150,000 cells/well. The cells were cultured at 37° C., 5% CO2 for 24 h.
On the second day of the experiment, the compound to be tested was diluted in gradient and added to a 24-well plate containing cells. The cells were cultured for 24 h at 37° C., 5% CO2. ERα capture antibody was diluted to 1 μg/ml with PBS (Corning, 21-040-CVR) and added to a 96-well plate at 100 μL/well, and the plate was […] coated overnight at room temperature.
On the third day of the experiment, the coated 96-well plate was washed three times with PBS, 300 μL of a blocking solution (R&D, DY995) was added to each well, and the plate was blocked at room temperature for 1 h. The 24-well plate was washed once with PBS, and the residual liquid was sucked off. […] The diluted cell lysate was taken and added to the blocked 96-well plate, with 100 μL per well, and incubated at room temperature for 2 h. The plate was washed three times with a washing solution (R&D, WA126), and a primary antibody was then added. After incubation for 1 h, the 96-well plate was washed four times, a secondary antibody was added, and incubation was carried out at room temperature in the dark for 30 min. The plate was washed four times with the washing solution, and TMB (R&D, DY999) was added. After 15 minutes of development, the reaction was terminated with a stop solution (R&D, DY994), and the light absorption at 450 nm was read.

GST-ERα-LBD = GST-ERα-LBD (Homo sapiens (Human), UniProt P03372); assay: ERα TR-FRET test; format: biochemical; conditions: estradiol final concentration 1.5 nM, biotin-SRC2
Chain of GST-ERα-LBD (P03372 311-547): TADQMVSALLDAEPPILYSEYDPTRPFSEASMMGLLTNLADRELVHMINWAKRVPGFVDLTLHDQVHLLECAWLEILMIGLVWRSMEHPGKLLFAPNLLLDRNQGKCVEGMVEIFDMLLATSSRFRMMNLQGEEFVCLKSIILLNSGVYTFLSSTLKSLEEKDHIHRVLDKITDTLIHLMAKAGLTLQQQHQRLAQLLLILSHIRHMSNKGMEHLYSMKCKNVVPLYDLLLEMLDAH
Description: 1× Tris-HCl (Sigma, PHG0002) protein buffer was prepared and mixed for later use. The compound to be detected was prepared into a stock solution with a concentration of 2 mM and then subjected to serial 3-fold gradient dilution, resulting in a total of 10 concentrations.
Preparation of 1× protein mixed solution: firstly, 2× GST-ERα-LBD (Invitrogen, A15677)/MAb anti-GST-Eu (Cisbio, 61GSTKLA) mixed solution was prepared according to the following table.
2× biotin-SRC2/streptavidin-XL665 (Cisbio, 610SAXLA) mixed solution was prepared.
The above 2× GST-NR-LBD/ MAb anti-GST-Eu solution and 2× biotin-SRC2/streptavidin-XL665 solution were uniformly mixed at a volume ratio of 1:1; and the 1× protein mixed solution was added to each well of a 384-well plate, with 20 μL being added per well, the 384-well plate was put into a centrifuge and centrifuged at room temperature at 1000 rpm for 10 seconds, and it was taken out, then left to stand at room temperature for 3 h, and then read by EnVision multifunctional microplate reader.
The inhibition rate was calculated according to the following formula: […]
The data were imported into Graphpad Prism, and Log(agonist) vs. response-variable slope was used for curve fitting.
Y=Bottom+(Top−Bottom)/(1+10^((LogEC50−X)*HillSlope)) Fitting formula

[2] = Stability in human liver microsomes in vitro; format: in vitro ADME; conditions: human liver microsomes; for half-life: microsome protein 1 mg/mL working solution, NADPH; for CLint scaled: scaled to liver; for microsomal CLint: read-out: CLint(mic)
Description: Test Example 4: Test for Stability in Human Liver Microsomes In Vitro Eight 96-well incubation plates were prepared and named [NT], Blank60 and NCF60, respectively. […] No test compound or control compound was added to Blank60 plate, and samples were taken after incubation for 60 min. NCF60 plate was incubated with a potassium phosphate buffer instead of an NADPH regeneration system solution (Sigma, N0505) for 60 min. […] Only the microsome working solution was added to Blank60 plate, and the incubation plates Blank60, T5, T15, T30, T45 and T60 except T0 and NCF60 were then placed in a water bath at 37° C. and pre-incubated for about 10 min. To the samples of T0 plate, 600 μL of a stop solution (acetonitrile:methanol (95:5, v/v) solution containing 100 ng/mL of tolbutamide (Sigma, T0891)) was added first, and the NADPH regeneration system working solution was then added. 98 μL of a potassium phosphate buffer was added to each well of NCF60 plate and incubated for 60 min. After the pre-incubation in the incubation plates Blank60, T5, T15, T30, T45 and T60 was completed, 98 μL of the NADPH regeneration system working solution was added to each sample well to initiate the reaction. After an appropriate incubation time (such as 5, 15, 30, 45 and 60 min), 600 μL of a stop solution was added to each sample well and the control sample well in Blank60, […] the reaction. All the sample plates were shaken uniformly and centrifuged at 3220×g for 20 min. 200 μL of test sample supernatant was separately taken and diluted in 200 μL of an aqueous solution containing 0.3% formic acid for LC-MS/MS analysis, and 100 μL of control sample supernatant was taken and diluted in 300 μL of pure water for LC-MS/MS analysis. Calculation was performed according to the following formula: [formula] [formula] [formula] [formula] [formula] [formula]

What does the source list for `CC(C)CN1[C@H](c2c(F)cc(OCCN3CC(CF)C3)cc2F)c2ccc3[nH]c(=O)oc3c2C[C@H]1C` [Example 1]?
IC50 [1]: 390 pM; DC50 (ERα): 620 pM; IC50 (GST-ERα-LBD): 9000 pM; half-life [2]: 1.53 h; CLint scaled [2]: 13.6 mL/min/kg; microsomal CLint [2]: 15.1 µL/min/mg

Which results are given for `C[C@@H]1Cc2c(ccc3[nH]c(=O)oc23)[C@@H](c2c(F)cc(NC3CN(CCCF)C3)cc2F)N1CC(F)(F)CO` [Example 9, (6S,8R)-7-(2,2-difluoro-3-hydroxypropyl)-6-(2,6-difluoro-4-((1-(3-fluoropropyl)azetidin-3-yl)amino)phenyl)-8-methyl-6,7,8,9-tetrahydrooxazolo[5,4-f]isoquinolin-2(3H)-one]?
IC50 [1]: 190 pM; DC50 (ERα): 390 pM; IC50 (GST-ERα-LBD): 21600 pM

What does the source list for `C[C@@H]1Cc2c(ccc3[nH]c(=O)oc23)[C@@H](c2c(F)cc(NC3CN(CCCF)C3)cc2F)N1CC(F)(F)F` [Example 10, (6S,8R)-6-(2,6-difluoro-4-((1-(3-fluoropropyl)azetidin-3-yl)amino)phenyl)-8-methyl-7-(2,2,2-trifluoroethyl)-6,7,8,9-tetrahydrooxazolo[5,4-f]isoquinolin-2(3H)-one]?
IC50 [1]: 200 pM; DC50 (ERα): 410 pM; IC50 (GST-ERα-LBD): 7800 pM; half-life [2]: 1.94 h; CLint scaled [2]: 8.1 mL/min/kg; microsomal CLint [2]: 9 µL/min/mg

With `C[C@@H]1Cc2c(ccc3[nH]c(=O)oc23)[C@@H](c2c(F)cc(OC3CN(CCCF)C3)cc2F)N1CC(F)(F)F` [Example 12, (6S,8R)-6-(2,6-difluoro-4-((1-(3-fluoropropyl)azetidin-3-yl)oxy)phenyl)-8-methyl-7-(2,2,2-trifluoroethyl)-6,7,8,9-tetrahydrooxazolo[5,4-f]isoquinolin-2(3H)-one] as the compound, how does the IC50 [1] read?
Its IC50 is 490 pM.

And the DC50 (ERα)?
Its DC50 is 570 pM.

And the IC50 (GST-ERα-LBD)?
Its IC50 is 15600 pM.

What about the half-life [2] of the same compound?
The half-life was 1.73 h.

And the CLint scaled [2]?
Its CLint scaled is 8.9 mL/min/kg.

And the microsomal CLint [2]?
Its microsomal CLint is 9.8 µL/min/mg.

What does the source list for `C[C@@H]1Cc2c(ccc3[nH]c(=O)oc23)[C@@H](c2c(F)cc(N3CC4(CN(CCF)C4)C3)cc2F)N1CC(F)(F)CO` [Example 14, (6S,8R)-7-(2,2-difluoro-3-hydroxypropyl)-6-(2,6-difluoro-4-(6-(2-fluoroethyl)-2,6-diazspiro[3.3]hept-2-yl)phenyl)-8-methyl-6,7,8,9-tetrahydrooxazolo[5,4-f]isoquinolin-2(3H)-one]?
IC50 [1]: 440 pM; IC50 (GST-ERα-LBD): 40300 pM; half-life [2]: 1.82 h; CLint scaled [2]: 8.7 mL/min/kg; microsomal CLint [2]: 9.5 µL/min/mg

Which results are given for `COc1cc(NC2CN(CCCF)C2)ccc1[C@@H]1c2ccc3[nH]c(=O)oc3c2C[C@@H](C)N1CC(F)(F)F` [Example 25, (6S,8R)-6-(4-((1-(3-fluoropropyl)azetidin-3-yl)amino)-2-methoxyphenyl)-8-methyl-7-(2,2,2-trifluoroethyl)-6,7,8,9-6,7,8,9-tetrahydrooxazolo[5,4-f]isoquinolin-2(3H)-one]?
IC50 [1]: 240 pM; DC50 (ERα): 340 pM; IC50 (GST-ERα-LBD): 11400 pM; half-life [2]: 1.76 h; CLint scaled [2]: 8.4 mL/min/kg; microsomal CLint [2]: 9.6 µL/min/mg

For `C[C@@H]1Cc2c(ccc3[nH]c(=O)oc23)[C@@H](c2ccc(NC3CN(CCCF)C3)cn2)N1CC(F)(F)F` [Example 26, (6S,8R)-6-(5-((1-(3-fluoropropane)azetidin-3-yl)amino)pyridin-2-yl)-8-methyl-7-(2,2,2-trifluoroethyl)-6,7,8,9-tetrahydroxazolo[5,4-f]isoquinolin-2(3H)-one], which IC50 [1] is on record?
Its IC50 is 550 pM.

What about the IC50 (GST-ERα-LBD) of the same compound?
Its IC50 is 58400 pM.

Which results are given for `COc1cc(O[C@H]2CCN(CCCF)C2)ccc1[C@@H]1c2ccc3[nH]c(=O)oc3c2C[C@@H](C)N1CC(F)(F)F` [Example 30, (6S,8R)-6-(4-(((S)-1-(3-fluoropropyl)pyrrolidin-3-yl)oxy)-2-methoxyphenyl)-8-methyl-7-(2,2,2-trifluoroethyl)-6,7,8,9-tetrahydroxazolo[5,4-f]isoquinolin-2(3H)-one]?
IC50 [1]: 210 pM; DC50 (ERα): 350 pM; IC50 (GST-ERα-LBD): 8850 pM; half-life [2]: 1.58 h; CLint scaled [2]: 14.4 mL/min/kg; microsomal CLint [2]: 15.8 µL/min/mg

Which IC50 [1] does the source give for `COc1cc(NC2CN(CCCF)C2)ccc1[C@@H]1c2ccc3[nH]c(=O)oc3c2C[C@@H](C)N1CC1(F)CC1` [Example 31] here?
Its IC50 is 850 pM.

What about the DC50 (ERα) of the same compound?
Its DC50 is 750 pM.

What about the IC50 (GST-ERα-LBD) of the same compound?
Its IC50 is 45600 pM.

And the half-life [2]?
The half-life was 1.39 h.

What about the CLint scaled [2] of the same compound?
The CLint scaled was 18.4 mL/min/kg.

And the microsomal CLint [2]?
The microsomal CLint was 17.5 µL/min/mg.

With `COc1cc(NC2CN(CCCF)C2)ccc1[C@@H]1c2ccc3[nH]c(=O)oc3c2C[C@@H](C)N1CC(C)(F)F` [Example 32] as the compound, how does the IC50 [1] read?
The IC50 was 390 pM.

And the DC50 (ERα)?
Its DC50 is 420 pM.

And the IC50 (GST-ERα-LBD)?
Its IC50 is 14700 pM.

What about the half-life [2] of the same compound?
Its half-life is 1.71 h.

What about the CLint scaled [2] of the same compound?
Its CLint scaled is 9 mL/min/kg.

What about the microsomal CLint [2] of the same compound?
Its microsomal CLint is 9.8 µL/min/mg.

With `COc1cc(NC2CN(CCCF)C2)cc(Cl)c1[C@@H]1c2ccc3[nH]c(=O)oc3c2C[C@@H](C)N1CC(F)(F)F` [Example 33, (6S,8R)-6-(4-((1-(3-fluoropropyl)azetidin-3-yl)amino)-2-methoxy-6-chloro-phenyl)-8-methyl-7-(2,2,2-trifluoroethyl)-6,7,8,9-6,7,8,9-tetrahydrooxazolo[5,4-f]isoquinolin-2(3H)-one] as the compound, how does the IC50 [1] read?
Its IC50 is 390 pM.

What about the DC50 (ERα) of the same compound?
Its DC50 is 350 pM.

What about the IC50 (GST-ERα-LBD) of the same compound?
The IC50 was 11800 pM.

What about the half-life [2] of the same compound?
The half-life was 1.85 h.

And the CLint scaled [2]?
Its CLint scaled is 7.9 mL/min/kg.

What about the microsomal CLint [2] of the same compound?
Its microsomal CLint is 8.3 µL/min/mg.
